These results are taken from patent publication US6528276B1, “Fusion proteins, DNA molecules, vectors, and host cells useful for measuring protease activity” (priority 1998, dated 2003).

The subject of assay [1] is fusion protein EdR5A/5B (i.e., the protein encoded by VgRXR-5A/5B). The assay is described as follows: Ligand-induced activation of the VgRXR-5A/5B fusion protein, luciferase reporter in COS cells without protease. The format is cell-based. On the procedure:
(§1) COS African green monkey kidney cells were plated at approximately 150,000 cells/well in a 6-well plate. The next day, approximately 3.6 μg plasmid DNA was dissolved in 100 μl of Dulbecco's modified Eagle's media-Gibco BRL (DMEM), combined with 29 μl of Superfect reagent (Qiagen), and then mixed by pipetting. The mixture was incubated at room temperature for ten minutes.
(§2) The amounts of DNA typically used in each experiment was as follows: 0.6 μg of pIND-Luc, 0.6 μg of pVgRXR-5A/5B or pVgRXR-5A**5B, and 0-2.4 μg of pSRα-NS3-4A or pSRα-NS3-4A(S1165A) or pSRα.
(§3) Next 600 μl of DMEM with v/v 10% fetal bovine serum (10% FBS-DMEM) was added to the DNA mixture and mixed by pipetting. The cells in the 6-well plate were washed with 2.5 ml phosphate-buffered saline (PBS). The PBS was removed from the cells and replaced by the DNA mixture. The cells were incubated in the DNA mixture for three hours at 37° C. in a 5% CO2 incubator.
After incubation, the cells were washed with PBS. The PBS was removed and 10% FBS-DMEM was added to the cells. The cells were incubated in 10% FBS-DMEM overnight at 37° C. in a 5% CO2 incubator.
On the next day, an exogenous ligand was added to the cells to induce transcription of the reporter gene. Specifically, the 10% FBS-DMEM was aspirated off the cells and replaced with a 10% FBS-DMEM solution containing a concentration of 1-10 μM muristerone A or 1-10 μM ponasterone A (Invitrogen, United Kingdom). In some cases, a protease inhibitor dissolved in dimethylsulfoxide(DMSO) was also added to the cells for a final concentration of 1-40 μM. The cells were incubated with muristerone A or ponasterone A for 24 hours at 37° C. in a 5% CO2 incubator.
The following day, the cells were washed with PBS. The activity of the luciferase protein was measured using a luciferase assay kit (Promega). Specifically, the cells were lysed in 250 μl of Cell Culture Lysis Reagent. The cells were scraped from the plate and transferred to a microfuge tube. The extract was spun at 12,000×g for 5 seconds. Twenty microliters of each sample was added to 100 μl of Luciferase Assay Reagent. The light produced by the reaction of the luciferase with the Reagent was measured in a luminometer and was reported as relative light units (RLU).
The plasmid pIND-Luc (0.6 μg) was cotransfected with pVgRXR-5A/5B (0.6 μg) in the absence or presence of 1.8 μg of pSRαNS3-4A. On the following day, the cells were incubated with varying amounts of ponasterone A, a ligand which induces the neterodimerization of ecdysone receptor with the mammalian […], RXR. The cells were lysed and assayed for luciferase activity as described previously. The results are depicted in FIG. 7. […]
In general terms: A reporter such as luciferase makes a cellular process visible.

For assay [2], the system named is pIND-Luc luciferase reporter. The assay is described as follows: Muristerone A-induced transactivation of pIND-Luc by expressed fusion proteins in COS cells. The following applies: 1 μM muristerone A. In kind it is cell-based, African green monkey. On the procedure:
as §1, §2, §3
After incubation, the cells were washed with PBS. The PBS was removed and 10% FBS-DMEM was added to the cells. […]
The following day, the cells were washed with PBS. The activity of the luciferase protein was measured using a luciferase assay kit (Promega). […] The light produced by the reaction of the luciferase with the Reagent was measured in a luminometer and was reported as relative light units (RLU). […]

Consider `C[S+](C)[O-]` [DMSO, dimethylsulfoxide], for which the “effect on ponasterone A-induced luciferase activity” value in assay [1] (DMSO concentrations up to 1% (v/v), 5 μM ponasterone A, with or without pSRαNS3-4A) is given as “little or no effect”.
Take `CC(C)CC[C@@H](O)[C@](C)(O)[C@H]1CC[C@@]2(O)C3=CC(=O)[C@@H]4C[C@@H](O)[C@@H](O)C[C@]4(C)[C@H]3CC[C@]12C` [ponasterone A]: in assay [1] (absence of the protease NS3-4A), the “activation of the fusion protein” value was “effective at activating the fusion protein”. The “induction of transcription compared with muristerone A” value in assay [1] (in these assays) is recorded as “equally effective”. In addition, the “ponasterone A concentration giving greatest activation of the fusion protein” value in assay [1] (tested at 1, 3.3, 10, 33, 100 μM, COS cells) is 3.3 to 10 µM.

B1: VgRXR: Invitrogen vector product: modified ecdysone receptor/VP16 fusion (VgEcR) plus RXR (protein)
chain: TPTTPLHLQQNLGGAGGGGIGGMGILHHANGTPNGLIGVVGGGGGVGLGVGGGGVGGLGMQHTPRSDSVNSISSGRDDLSPSSSLNGYSANESCDAKKSKKGPAPRVQEELCLVCGDRASGYHYNALTCEGCKGFFRRSVTKSAVYCCKFGRACEMDMYMRRKCQECRLKKCLAVGMRPECVVPENQCAMKRREKKAQKEKDKMTTSPSSQHGGNGSLASGGGQDFVKKEILDLMTCEPPQHATIPLLPDEILAKCQARNIPSLTYNQLAVIYKLIWYQDGYEQPSEEDLRRIMSQPDENESQTDVSFRHITEITILTVQLIVEFAKGLPAFTKIPQEDQITLLKACSSEVMMLRMARRYDHSSDSIFFANNRSYTRDSYKMAGMADNIEDLLHFCRQMFSMKVDNVEYALLTAIVIFSDRPGLEKAQLVEAIQSYYIDTLRIYILNRHCGDSMSLVFYAKLLSILTELRTLGNQNAEMCFSLKLKNRKLPKFLEEIWDVHAIPPSVQSHLQITQEENERLERAERMRASVGGAITAGIDCDSASTSAAAAAAQHQPQPQPQPQPSSLTQNDSQHQTQPQLQPQLPPQLQGQLQPQLQPQLQTQLQPQIQPQPQLLPVSAPVPASVTAPGSLSAVSTSSEYMGGSAAIGPITPATTSSITAAVTASSTTSAVPMGNGVGVGVGVGGNVSMYANAQTAMALMGVALHSHQEQLIGGVAVKSEHSTTA
modifications: left off: large carriers
notes: Invitrogen vector product: modified ecdysone receptor/VP16 fusion (VgEcR) plus RXR
Regarding B1, the “change in luciferase activity when coexpressed with the protease NS3-4A” value in assay [2] (increasing amounts of pSRαNS3-4A) is on record as “little or no change”.

B2: pVgRXR-5A(Stop)5B: control fusion protein with tandem stop codons in the 5A/5B cleavage site (SEQ ID NO:22) (protein)
chain: MAPPTDVSLGDELHLDGEDVAMAHADALDDFDLDMLGDGDSPGPGFTPHDSAPYGALDMADFEFEQMFTDALGIDEYGGKLLGTGADTEDVVCC
As for B2, in assay [2] (24 hours, no protease, FIG. 4), the “muristerone A-induced luciferase activity of the expressed fusion protein” value was “negligible activity”.
